What was measured:
[1] = target: T1, CaCHS1p (chitin synthase of Candida albicans) (Candida albicans, UniProt P23316); experiment: Chitin synthase inhibition assay (WGA capture / WGA-HRP detection of chitin synthesized in vitro); type: biochemical; conditions: inhibitor added over a range of concentrations, to a maximal concentration of 1 mM; FIG. 3
Text: Preparation of CaCHS1p Membranes: In this example, chitin synthase was obtained from the S. cerevisiae strain 68-11-2C, transformed with the plasmid pJA16 (Bulawa et al., 1990, Proc. Natl. Acad. Sci. USA, 87:7424-7428 and Au-Young et al., 1990, Mol. Micro. 4:197-207). In strain 68-11-2C, the S. cerevisiae genes encoding chitin synthases 1 and 2 (CHS1 and CHS2, respectively) were genetically disrupted, rendering the strain deficient in production of these enzymes. The plasmid pJA16 encodes the chitin synthase gene of Candida albicans, and provides the only significant source of chitin in this assay.
Generally, the strain 68-1-2C/pJA16 is maintained on a supplemented SD medium. In this example, the cells were grown in 1 liter of SD medium for 48 hrs at 30° C. To provide good aeration, the culture was divided into two 500 ml cultures and grown in 2-liter flasks until the culture reached the stationary phase (i.e., until the OD600 of the culture reached 1.2-1.4). […] The cell walls then were broken by vortexing aliquots (2 ml) of the resuspended cells for 2 minutes with 3 ml of glass beads, according to conventional protocols. The cell extracts then were centrifuged for 5 minutes at 1,000×g, and the resulting supernatant was stored at -80° C. until it was used in the chitin synthase reactions described below. Frozen CaCHS1p membranes can be thawed at 30° C. […]

[2] = target: T1, CaCHS1p (chitin synthase of Candida albicans); conditions: known relative potency, Nikkomycin Z versus Asperfuran; cited from earlier work

T1 sequence (P23316 whole entry): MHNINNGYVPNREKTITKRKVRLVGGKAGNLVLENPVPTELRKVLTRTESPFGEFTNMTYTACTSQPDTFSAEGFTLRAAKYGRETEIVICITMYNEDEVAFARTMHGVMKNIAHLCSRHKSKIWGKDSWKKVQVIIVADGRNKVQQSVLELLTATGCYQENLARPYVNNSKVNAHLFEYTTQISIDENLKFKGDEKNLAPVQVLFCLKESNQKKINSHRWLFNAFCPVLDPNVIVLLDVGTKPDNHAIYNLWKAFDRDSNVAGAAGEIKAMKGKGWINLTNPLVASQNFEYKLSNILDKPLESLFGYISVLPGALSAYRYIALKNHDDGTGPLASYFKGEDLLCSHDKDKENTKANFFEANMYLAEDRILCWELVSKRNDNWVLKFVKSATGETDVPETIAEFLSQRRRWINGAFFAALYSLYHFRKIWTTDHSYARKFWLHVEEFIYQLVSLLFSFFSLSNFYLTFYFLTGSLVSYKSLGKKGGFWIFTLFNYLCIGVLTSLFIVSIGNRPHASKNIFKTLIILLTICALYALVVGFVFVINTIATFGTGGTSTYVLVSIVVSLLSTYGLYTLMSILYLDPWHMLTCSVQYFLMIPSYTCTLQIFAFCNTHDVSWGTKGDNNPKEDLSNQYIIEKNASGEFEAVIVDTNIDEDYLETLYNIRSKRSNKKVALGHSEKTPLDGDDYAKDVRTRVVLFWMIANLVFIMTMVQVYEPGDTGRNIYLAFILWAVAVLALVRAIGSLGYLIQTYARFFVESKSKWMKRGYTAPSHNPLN

SMILES | inhibition of chitin synthase [1] | relative potency as inhibitor of CaCHS1p activity [2]
C/C=C/C=C/[C@H]1Cc2cc(O)cc(O)c2O1 [Asperfuran] | an increase in the concentration of either of these chitin synthase inhibitors causes an increase in the inhibition of chitin synthase | –
C[C@@H]([C@H](N)C(=O)N[C@H](C(=O)O)[C@H]1O[C@@H](n2ccc(=O)[nH]c2=O)[C@H](O)[C@@H]1O)[C@H](O)c1ccc(O)cn1 [Nikkomycin Z] | an increase in the concentration of either of these chitin synthase inhibitors causes an increase in the inhibition of chitin synthase | more potent inhibitor of CaCHS1p activity than is Asperfuran

From US5888757A, “Cell wall assay” (Millennium Pharmaceuticals, Inc., priority 1996, dated 1999)
